Test results: ChEMBL document CHEMBL1201862, “PubChem BioAssay data set” (2004)
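A five-concentration, 48-hour dose response in 96-well plates underlies each endpoint, interpolated linearly between surrounding concentrations. GI50 marks 50% less growth.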 Activity calls are given as the source filed them. No stated cut-off is given here; in the data, active = GI50 up to about 1.1 µM and inactive = higher.

Experiments:
Assay in all cases: NCI-60 cell line screen, 48 h
A498 = test system: A498
A549 = test system: A549
COLO 205 = test system: COLO 205
DLD-1 = test system: DLD-1
DMS-114 = test system: DMS-114
HCC 2998 = test system: HCC 2998
HCT-116 = test system: HCT-116
HCT-15 = test system: HCT-15
HOP-62 = test system: HOP-62
HT-29 = test system: HT-29
MOLT-4 = test system: MOLT-4
OVCAR-3 = test system: OVCAR-3
OVCAR-4 = test system: OVCAR-4
RXF 393 = test system: RXF 393
SF-539 = test system: SF-539
SN12C = test system: SN12C
SNB-19 = test system: SNB-19
SNB-75 = test system: SNB-75
SR = test system: SR
OVCAR-5 = test system: OVCAR-5

Row | SMILES | GI50 (A498) | GI50 (A549) | GI50 (COLO 205) | GI50 (DLD-1) | GI50 (DMS-114) | GI50 (HCC 2998) | GI50 (HCT-116) | GI50 (HCT-15) [µM] | GI50 (HOP-62) | GI50 (HT-29) | GI50 (MOLT-4) | GI50 (OVCAR-3) | GI50 (OVCAR-4) | GI50 (RXF 393) | GI50 (SF-539) | GI50 (SN12C) | GI50 (SNB-19) | GI50 (SNB-75) | GI50 (SR) | GI50 (OVCAR-5)
1 | COc1ccc(C(=O)CC(=O)C(=O)Nc2ccc(C)c(C)c2)cc1 | > 100 µM (inactive) | > 91.8 µM (inactive) | > 51.9 µM (inactive) | 61.8 µM (inactive) | 22.8 µM (inactive) | 97.3 µM (inactive) | 43.8 µM (inactive) | 31.3 | > 90.8 µM (inactive) | > 100 µM (inactive) | > 53.2 µM (inactive) | > 100 µM (inactive) | 85.5 µM (inactive) | > 54.5 µM (inactive) | > 100 µM (inactive) | > 91.6 µM (inactive) | > 100 µM (inactive) | 11.3 µM (inactive) | > 100 µM (inactive) | –
2 | CC1=NN(C(=O)CC(=O)Nc2cccc(Cl)c2)C(=O)C1/N=N/c1ccc(S(N)(=O)=O)cc1 (stereo not drawn) | > 100 µM (inactive) | > 100 µM (inactive) | > 100 µM (inactive) | > 100 µM (inactive) | > 100 µM (inactive) | > 100 µM (inactive) | > 100 µM (inactive) | > 100 | > 100 µM (inactive) | > 100 µM (inactive) | > 100 µM (inactive) | > 100 µM (inactive) | > 100 µM (inactive) | > 100 µM (inactive) | > 100 µM (inactive) | > 100 µM (inactive) | > 100 µM (inactive) | > 100 µM (inactive) | > 100 µM (inactive) | > 100 µM (inactive)
3 | CCN(CC)CCCn1cnc2ncccc2c1=O | – | > 100 µM (inactive) | > 100 µM (inactive) | > 100 µM (inactive) | > 100 µM (inactive) | > 10 µM (inactive) | > 100 µM (inactive) | – | > 100 µM (inactive) | > 100 µM (inactive) | – | > 100 µM (inactive) | > 100 µM (inactive) | > 100 µM (inactive) | > 100 µM (inactive) | > 100 µM (inactive) | > 100 µM (inactive) | > 100 µM (inactive) | > 100 µM (inactive) | > 100 µM (inactive)
4 | COc1ccc(OC(C)C(=O)O)c2c1CCCC2=O (stereo not drawn) | > 100 µM (inactive) | > 100 µM (inactive) | > 100 µM (inactive) | > 100 µM (inactive) | > 100 µM (inactive) | > 100 µM (inactive) | > 100 µM (inactive) | > 100 | > 100 µM (inactive) | > 100 µM (inactive) | > 100 µM (inactive) | > 100 µM (inactive) | > 100 µM (inactive) | > 100 µM (inactive) | > 100 µM (inactive) | > 100 µM (inactive) | > 100 µM (inactive) | > 100 µM (inactive) | > 100 µM (inactive) | > 100 µM (inactive)
5 | O=C(c1ccccc1)c1nnn(Cc2ccccc2Cn2nnc(C(=O)c3ccccc3)c2C(=O)c2ccccc2)c1C(=O)c1ccccc1 | > 100 µM (inactive) | 48.2 µM (inactive) | 50.5 µM (inactive) | > 100 µM (inactive) | 81.1 µM (inactive) | > 100 µM (inactive) | > 100 µM (inactive) | > 100 | > 100 µM (inactive) | > 100 µM (inactive) | > 100 µM (inactive) | > 100 µM (inactive) | > 100 µM (inactive) | – | > 100 µM (inactive) | > 100 µM (inactive) | > 100 µM (inactive) | > 100 µM (inactive) | > 100 µM (inactive) | > 100 µM (inactive)
6 | COc1ccc(-c2c(C3=NCCCN3)nnn2-c2ccc([N+](=O)[O-])cc2)cc1 | > 100 µM (inactive) | > 100 µM (inactive) | > 100 µM (inactive) | > 100 µM (inactive) | > 100 µM (inactive) | > 100 µM (inactive) | > 100 µM (inactive) | > 100 | > 100 µM (inactive) | > 100 µM (inactive) | > 100 µM (inactive) | > 100 µM (inactive) | > 100 µM (inactive) | > 100 µM (inactive) | > 100 µM (inactive) | > 100 µM (inactive) | > 100 µM (inactive) | > 100 µM (inactive) | > 100 µM (inactive) | > 100 µM (inactive)
7 | COC1C(OC(=S)Nc2ccccc2)c2ccccc2N1C(C)=O (stereo not drawn) | > 100 µM (inactive) | 87.7 µM (inactive) | > 100 µM (inactive) | 90.2 µM (inactive) | 60.7 µM (inactive) | > 100 µM (inactive) | > 100 µM (inactive) | 52.1 | > 100 µM (inactive) | 99.1 µM (inactive) | 44 µM (inactive) | > 100 µM (inactive) | 75.9 µM (inactive) | 26.5 µM (inactive) | > 100 µM (inactive) | > 100 µM (inactive) | > 100 µM (inactive) | > 100 µM (inactive) | 48.6 µM (inactive) | –
8 | CCCCCCC(=O)CC(=O)C(=O)Nc1ccccc1C | > 100 µM (inactive) | > 100 µM (inactive) | > 57.1 µM (inactive) | > 67.5 µM (inactive) | > 69.7 µM (inactive) | > 100 µM (inactive) | > 100 µM (inactive) | > 44.4 | > 100 µM (inactive) | > 100 µM (inactive) | > 100 µM (inactive) | > 100 µM (inactive) | > 100 µM (inactive) | > 100 µM (inactive) | > 100 µM (inactive) | > 100 µM (inactive) | > 100 µM (inactive) | > 100 µM (inactive) | > 100 µM (inactive) | > 100 µM (inactive)
9 | CCOc1ccccc1/N=N/c1c(-c2ccccc2)nn(C(=O)CC(=O)Nc2cccc(C)c2)c1-c1ccccc1 | – | > 100 µM (inactive) | > 100 µM (inactive) | 62.8 µM (inactive) | 44.8 µM (inactive) | 22.7 µM (inactive) | > 100 µM (inactive) | – | > 100 µM (inactive) | 39.6 µM (inactive) | > 100 µM (inactive) | > 100 µM (inactive) | > 100 µM (inactive) | > 100 µM (inactive) | > 100 µM (inactive) | > 100 µM (inactive) | > 100 µM (inactive) | 27.4 µM (inactive) | > 100 µM (inactive) | > 100 µM (inactive)
10 | COc1ccc2c(c1)[n+]([O-])c(-c1ccccc1Cl)c(N)[n+]2[O-] | > 100 µM (inactive) | 94.2 µM (inactive) | 18.5 µM (inactive) | > 100 µM (inactive) | 32.8 µM (inactive) | – | > 100 µM (inactive) | 39.9 | > 100 µM (inactive) | 62.5 µM (inactive) | 96.8 µM (inactive) | 40.6 µM (inactive) | > 100 µM (inactive) | – | > 100 µM (inactive) | > 100 µM (inactive) | > 100 µM (inactive) | 75 µM (inactive) | > 100 µM (inactive) | > 100 µM (inactive)
11 | CSC1=Nc2ccccc2N=C(c2ccccc2)C1 | > 100 µM (inactive) | 80.2 µM (inactive) | 21.2 µM (inactive) | 29.4 µM (inactive) | 21.5 µM (inactive) | 62.2 µM (inactive) | 24.6 µM (inactive) | 33.3 | > 100 µM (inactive) | 46.7 µM (inactive) | 27.9 µM (inactive) | 30.7 µM (inactive) | > 100 µM (inactive) | 20.4 µM (inactive) | > 100 µM (inactive) | > 100 µM (inactive) | > 100 µM (inactive) | 66.5 µM (inactive) | 24 µM (inactive) | 67.1 µM (inactive)
12 | CC(C)(Oc1ccc(/C=C/C(=O)c2ccccc2)cc1)C(=O)Nc1c(Cl)cccc1Cl | 0.524 µM (active) | > 10 µM (inactive) | > 10 µM (inactive) | > 10 µM (inactive) | 8.47 µM (inactive) | > 10 µM (inactive) | > 10 µM (inactive) | > 10 | > 10 µM (inactive) | > 10 µM (inactive) | > 10 µM (inactive) | 6.95 µM (inactive) | > 10 µM (inactive) | > 10 µM (inactive) | > 10 µM (inactive) | > 10 µM (inactive) | > 10 µM (inactive) | > 10 µM (inactive) | 3.48 µM (inactive) | > 10 µM (inactive)
13 | Cc1nc(Nc2ccc(Cl)cc2)sc1C(=O)NNC(=O)C(=O)NN | 15.7 µM (inactive) | 21 µM (inactive) | 20.3 µM (inactive) | 18.5 µM (inactive) | 20.4 µM (inactive) | 20 µM (inactive) | 19.6 µM (inactive) | 17.1 | 21.5 µM (inactive) | 16.6 µM (inactive) | 19.5 µM (inactive) | 21.5 µM (inactive) | 18.1 µM (inactive) | 24.9 µM (inactive) | 26.1 µM (inactive) | 16.1 µM (inactive) | 21.3 µM (inactive) | 23.7 µM (inactive) | 27.5 µM (inactive) | 17 µM (inactive)
14 | COC1(OC)C2(Cl)C3=CCCC=C3C1(Cl)C(Cl)=C2Cl | – | 27.2 µM (inactive) | 18.6 µM (inactive) | 28.9 µM (inactive) | 18.1 µM (inactive) | 29.2 µM (inactive) | 17.1 µM (inactive) | 27.5 | 26.3 µM (inactive) | 20.6 µM (inactive) | 18.4 µM (inactive) | 17.4 µM (inactive) | 18.2 µM (inactive) | 13.9 µM (inactive) | 29 µM (inactive) | 28.7 µM (inactive) | 26.1 µM (inactive) | 23.3 µM (inactive) | 18.1 µM (inactive) | 23.7 µM (inactive)
15 | COC(C(=O)NCCCCNC(=O)C(OC)c1ccccc1)c1ccccc1 (stereo not drawn) | > 100 µM (inactive) | > 100 µM (inactive) | > 100 µM (inactive) | > 100 µM (inactive) | > 100 µM (inactive) | – | > 100 µM (inactive) | > 100 | > 100 µM (inactive) | > 100 µM (inactive) | > 100 µM (inactive) | > 100 µM (inactive) | > 100 µM (inactive) | > 100 µM (inactive) | > 100 µM (inactive) | > 100 µM (inactive) | > 100 µM (inactive) | > 100 µM (inactive) | > 100 µM (inactive) | > 100 µM (inactive)
